The source of these data is publication PMC11123692, “Sugar-Based Surfactants: Effects of Structural Features on the Physicochemical Properties of Sugar Esters and Their Comparison to Commercial Octyl Glycosides” (Molecules, 2024).

For data set [1] the following is noted: cited from earlier work.
The conditions of data set [2]: cited from earlier work. The source holds these as a separate data set.
Data set [3] in a line: Water solubility limit by visual examination (transparent/turbid). The format is physicochemical. To be noted: for Solubility Limit (S/mM) / solubility: water; for solubility: thermodynamic from solid, read-out: Solubility Limit (S/mM). The source says:
Water solubility reflects the ability of a particular molecule to dissolve and its interaction with water. To characterize the water solubility of most amphiphile molecules, especially the ionic surfactants, the Krafft point (Tk) is often used, referring to the critical temperature above which micelles form or the melting point of the hydrated solid surfactant. Two general approaches were used to measure the Tks of the molecules investigated herein: (1) a visual examination of the dissolution phenomenon for binary molecule/water systems, and (2) a quantitative measurement by using differential scanning calorimetry (DSC) analysis. The visual observation procedure is detailed below. […] Consequently, molecules can be classified into two major types: those soluble in water at RT and others insoluble at RT, with the solubility limit being called S (expressed in mM). The aspect of the sample, either transparent or turbid, is determined by direct visual examination. Tk determination with DSC is particularly applicable in the case of molecules insoluble at RT, for which a concentrated binary molecule/water mixture with a mass fraction of 20% of each molecule (C >> CMC in most cases) was prepared at 65 °C under stirring for 30 min to obtain a homogeneous system. These pre-homogenized aqueous systems were cooled and conserved in a refrigerator at 4 °C for a suitable period (>7 days), during which equilibrated hydrated crystals formed and precipitated. Then, for each molecule, about a 200–400 mg crystal sample was taken and put into the calorimeter cell. The first equilibrium phase was programmed at 4 °C for 1 h, followed by a slow heating stage from 4 °C to 65 °C at a rate of 0.5 °C/min. Tk was determined based on the location of the endothermic peak on the DSC curve, if any. All agitations were performed using a standard magnetic hotplate stirrer, MR 3001K (Heidolph Instruments, Schwabach, Germany). DSC curves were obtained from a commercial µDSC7 evo calorimeter (SETARAM Instrumentation, Caluire-et-Cuire, France). Tks are reported as the averages of at least two measurements as well as their standard deviations.

The nature of data set [4]: Krafft temperature (Tk) by visual examination and DSC of molecule/water systems. It counts as physicochemical. Conditions: in water; observation and DSC; average ± SD of at least two measurements. The source says:
Water solubility reflects the ability of a particular molecule to dissolve and its interaction with water. To characterize the water solubility of most amphiphile molecules, especially the ionic surfactants, the Krafft point (Tk) is often used, referring to the critical temperature above which micelles form or the melting point of the hydrated solid surfactant. Two general approaches were used to measure the Tks of the molecules investigated herein: (1) a visual examination of the dissolution phenomenon for binary molecule/water systems, and (2) a quantitative measurement by using differential scanning calorimetry (DSC) analysis. The visual observation procedure is detailed below. We start with adding the molecule into 5–50 mL water, in a concentration range between 10^−2 mM and 10^3 mM (corresponding to a range of a surfactant mass concentration well below 20%), keeping the suspension under stirring for a certain time at room temperature (RT). Consequently, molecules can be classified into two major types: those soluble in water at RT and others insoluble at RT, with the solubility limit being called S (expressed in mM). The aspect of the sample, either transparent or turbid, is determined by direct visual examination. Tk determination with DSC is particularly applicable in the case of molecules insoluble at RT, for which a concentrated binary molecule/water mixture with a mass fraction of 20% of each molecule (C >> CMC in most cases) was prepared at 65 °C under stirring for 30 min to obtain a homogeneous system. These pre-homogenized aqueous systems were cooled and conserved in a refrigerator at 4 °C for a suitable period (>7 days), during which equilibrated hydrated crystals formed and precipitated. Then, for each molecule, about a 200–400 mg crystal sample was taken and put into the calorimeter cell. The first equilibrium phase was programmed at 4 °C for 1 h, followed by a slow heating stage from 4 °C to 65 °C at a rate of 0.5 °C/min. Tk was determined based on the location of the endothermic peak on the DSC curve, if any. All agitations were performed using a standard magnetic hotplate stirrer, MR 3001K (Heidolph Instruments, Schwabach, Germany). DSC curves were obtained from a commercial µDSC7 evo calorimeter (SETARAM Instrumentation, Caluire-et-Cuire, France). Tks are reported as the averages of at least two measurements as well as their standard deviations.

Data set [5] in a line: Equilibrium surface tension, Wilhelmy plate method (CMC, γcmc, Amin and derived quantities). The format is physicochemical. To be noted: for Amin: from Gibbs adsorption equation. The procedure: CMCs are determined from the inflections in the plots of equilibrium surface tension against the logarithm of the concentration. For the interested reader, the Gibbs-free energy of micellization, ΔGmic, the Gibbs-free energy of adsorption, ΔGads, and the efficiency of surfactant adsorption pC20 were calculated based on their definitions, as presented in Table 2.
The surface activity reflects the amphiphiles’ adsorption behavior on the air–aqueous solution interface. The surface tension (γ) was obtained using the Wilhelmy plate method with a K100 Processor Tensiometer (KRUSS, Hamburg, Germany). Both the critical micellar concentration (CMC) and equilibrium surface tension at the CMC (γcmc) were derived from the typical plot of surface tension (γ) against the logarithm of concentration (Log C). The surface excess (Γmax) and minimal area per molecule at the air–aqueous solution interface (Amin) at different temperatures were calculated from the Gibbs adsorption equation [3, 46]:(2) Γmax=−1/2.303RT(dγ/dlogc) and (3) Amin=10^20/NAΓmax where R is the ideal gas constant, 8.31 J∙mol^−1∙K^−1; T is the measuring temperature, K; γ is the surface tension, N/m; c is the concentration, mol.L^−1; Amin is the minimal area per molecule, Å^2, and NA is Avogadro’s number, 6.022·10^23 mol^−1.
For each molecule, several solutions of a wide range of concentrations were prepared. Before measuring, each solution was finely homogenized with the help of a magnetic stirring bar. The stirring time was fixed at 30 min in all cases. […] Then, measurements were performed once for each concentration, at the solution preparation’s temperature, with an uncertainty of ±1 °C.

Details of data set [6]: method as in doi:10.1039/C4MD00122B. To be noted: ITC at 25 °C; cited from earlier work.
Data set [7] in a line: Precipitation on cooling previously heated 50 mM aqueous solutions. It counts as physicochemical. To be noted: 50 mM in water. As to the method:
For commercial alkyl glucosides, the Tk decreases in the following sequence: C8αGlc > C8βGal >> C8βGlc ≈ C8αGal. […] The obtained Tk for C8αGlc is around 40 °C in accordance with previously published values. However, as determined by the same experimental protocol, the Tk for C8βGal is about 29 °C, much lower than 42 °C derived from the phase diagram reported by Sakya et al. A possible explanation is that Sakya et al. synthesized and purified C8βGal by themselves, whereas we carried our measurements on commercially purchased C8βGal. […] For this reason, we assume that many researchers have been able to investigate their aqueous solutions at 25 °C, as mentioned in the introduction. In addition, when cooling the previously heated solutions with the same molecular concentration of 50 mM, we noted that C8αGlc precipitated much faster than C8βGal. […] This may, to some extent, be explained by a more favorable crystal structure for C8αGlc than C8βGal. With regard to C8αGal, which is presented in commercial samples as a highly viscous liquid, we expect it to have the weakest crystal structure and a very low Tk value. However, our experimental methods cannot give its exact Tk. […]

The structures appear in SMILES notation. ≈ marks a conversion by molar mass, not a printed value. Where “and” joins values, the source holds several entries; their conditions need not be identical. Equal entries are not always repeated. Where two headings read alike, the source gives them in different places.

`CCCCCCCC(=O)OC[C@H]1O[C@@H](O)[C@H](O)[C@@H](O)[C@@H]1O` [6-O-octanoyl-β-glucose]: the solubility limit in data set [1] (above its Tk) was 25 mg/mL and > 80 mM. For the same molecule, the CMC in data set [2] (ref 20) is on record as 18 mM.
In the case of `CCCCCCCC(=O)OC[C@H]1O[C@@H](OC)[C@H](O)[C@@H](O)[C@H]1O` [MeβGalO(C=O)C7, Methyl 6-O-octanoyl-β-D-galactopyranoside], in data set [3] (at T > Tk), the “Solubility Limit (S/mM)” value was “high solubility limits”. Besides, the solubility in data set [3] (at RT) is over 100 mM. In addition, the “Tk (Krafft temperature)” value in data set [4] was under 4 °C. Further, in data set [5] (T = 25 °C), the C20 is on record as 0.7 mM, the pC20 was determined as 3.1, the ΔGads is -7.3 kcal/mol and the ΔGmic was -4.6 kcal/mol. The molecule also had an Amin in data set [5] (T = 25 °C) of 42.7 ± 2.4 Å^2/molecule. In addition, in data set [5] (T = 25 °C (T > Tk)), the CMC was determined as 8.5 ± 0.5 mM and the γcmc turned out to be 28.3 ± 0.35 mN/m.
Take `CCCCCCCCO[C@H]1O[C@H](CO)[C@H](O)[C@H](O)[C@H]1O` [Molecule C8αGal, Octyl α-D-galactopyranoside, reference compound]: the solubility in data set [3] (at RT) was over 100 mM. In data set [6], the CMC is 30.2 ± 0.4 mM. In addition, the “Tk (Krafft temperature)” value in data set [4] was under 4 °C. For the same molecule, in data set [5] (T = 25 °C), the C20 was determined as 3.8 mM, the pC20 amounted to 2.4, the ΔGads was -6.4 kcal/mol and the ΔGmic was -3.6 kcal/mol. The Amin in data set [5] (T = 25 °C) is reported as 45.8 ± 0.9 Å^2/molecule. In data set [5] (T = 25 °C (T > Tk)), the CMC was 51.7 mM and 51.7 ± 1.5 mM; the γcmc stood at 29.5 ± 0.2 mN/m.
With `CCCCCCCCO[C@H]1O[C@H](CO)[C@@H](O)[C@H](O)[C@H]1O` [Molecule C8αGlc, Octyl α-D-glucopyranoside, reference compound], in data set [3] (at RT), the “Solubility Limit (S/mM)” value is on record as “insoluble”. Also, the solubility in data set [3] (at T > Tk) is over 100 mM. For the same molecule, in data set [5] (T = 50 °C), the C20 is 2.8 mM, the pC20 is given as 2.6, the ΔGads was -7.0 kcal/mol and the ΔGmic was -4.7 kcal/mol. Also, the Amin in data set [5] (T = 50 °C) worked out at 43 ± 1.8 Å^2/molecule. In data set [5] (T = 50 °C (T > Tk)), the CMC was 15.5 mM and 15.5 ± 0.5 mM; the γcmc was 30.7 mN/m and 30.7 ± 0.3 mN/m. Also, the “precipitation when cooling the previously heated solution” value in data set [7] was “within an hour”. In data set [2] (Wilhelmy plate method at 25 °C), the CMC is 12 mM and the γcmc is 30.5 mN/m.
With `CCCCCCCCO[C@@H]1O[C@H](CO)[C@H](O)[C@H](O)[C@H]1O` [Molecule C8βGal, octyl β-D-galactopyranoside, reference compound], in data set [3] (20 mM in water at room temperature), the aspect of solution entry is reported as “nearly transparent”. The solubility in data set [3] (at RT) fell in the range of 10 to 20 mM (≈ 2.92 to 5.85 mg/mL). For the same molecule, the solubility in data set [3] (at T > Tk) is over 100 mM. In addition, the CMC in data set [6] is recorded as 31.7 ± 0.7 mM. In addition, in data set [5] (T = 40 °C), the C20 is 3.2 mM, the pC20 stood at 2.5, the ΔGads is -7.1 kcal/mol and the ΔGmic is -4.4 kcal/mol. Moreover, in data set [5] (T = 40 °C), the Amin came to 46.3 ± 1.7 Å^2/molecule. Further, in data set [5] (T = 40 °C (T > Tk)), the CMC is 20 mM and 20 ± 1 mM; the γcmc was 28.5 mN/m and 28.5 ± 0.5 mN/m. Further, the “precipitation when cooling the previously heated solution” value in data set [7] is recorded as “no change was observed over one month”. Besides, the Tk in data set [1] (derived from the phase diagram of Sakya et al.) was 42 °C. Further, in data set [2] (Wilhelmy plate method at 25 °C), the CMC is given as 16 mM and the γcmc is 30.5 mN/m.
For the molecule `CCCCCCCCO[C@@H]1O[C@H](CO)[C@@H](O)[C@H](O)[C@H]1O` [Molecule C8βGlc, octyl β-D-glucopyranoside, reference compound], the solubility in data set [3] (at RT) is over 100 mM. In data set [5] (T = 25 °C), the C20 worked out at 2.7 mM, the pC20 came out at 2.6, the ΔGads was -6.4 kcal/mol and the ΔGmic is -4.1 kcal/mol. The molecule also returned an Amin in data set [5] (T = 25 °C) of 38.5 ± 1.9 Å^2/molecule. In addition, in data set [5] (T = 25 °C (T > Tk)), the CMC was 21.2 mM and 21.2 ± 0.8 mM; the γcmc turned out to be 31.0 ± 0.15 mN/m. Further, in data set [1] (ref 25), the “solubility relative to octyl-α-D-glucoside (C8αGlc)” value is given as “about seven times larger”. The Amin in data set [2] (ref 23) is given as 38 Å^2/molecule. Besides, the Amin in data set [2] (ref 46) is given as 42 Å^2/molecule.
